Assay results taken from patent publication US8796001B2, “Metalloenzyme inhibitor compounds” (Viamet Pharmaceuticals, Inc., priority 2011, dated 2014).

The compounds below were run on Puccinia recondita tritici = Puccinia triticina (PUCCRT) (assay: Fungicidal activity vs. leaf rust on wheat plants). Conditions: wheat (Yuma) sprayed at 50 ppm, inoculated the following day, rated 7-9 days later, read-out: Puccinia Rating (% Disease Control @ 50 ppm).
Assay type: in vivo
Text: D. Evaluation of Fungicidal Activity vs. Leaf Rust (Causal Agent Puccinia Recondita Tritici=Puccinia Triticina; Bayer Code PUCCRT)
Each pot contained 3-8 seedlings. These plants were sprayed until wet with the formulated test compounds. The compounds were formulated at 50 ppm in 10 vol. % acetone plus 90 vol. % Triton X water (deionized water 99.99 wt %+0.01 wt % Triton X100), giving a “formulated test compound.” Formulated test compounds were applied to plants using a turn table sprayer fitted with two opposing air atomization nozzles which delivered approximately 1500 L/ha of spray volume. On the following day, the leaves were inoculated with an aqueous spore suspension of Puccinia recondita tritici and the plants were kept in high humidity overnight to permit spores to germinate and infect the leaf. The plants were then transferred to a greenhouse until disease developed on untreated control plants. Disease severity was evaluated 7-9 days later, depending on the speed of disease development.
In each case of Table 3, the Puccinia rating scale is as follows: […]

Q: For `OC(Cn1cnnn1)(c1ccc(F)cc1F)C(F)(F)c1ccc(Oc2ccc(/C=N/OCc3ccccc3)cn2)cn1` (centres unmarked) [Compound 103, (E)-6-((6-(2-(2,4-difluorophenyl)-1,1-difluoro-2-hydroxy-3-(1H-tetrazol-1-yl)propyl)pyridin-3-yl)oxy)nicotinaldehyde O-benzyl oxime], which pest or weed control at 50 ppm is on record?
A: 60 to 79%

Q: How did the pest or weed control at 50 ppm turn out when `N#Cc1ccc(COc2ccc(C(F)(F)C(O)(Cn3cnnn3)c3ccc(F)cc3F)nc2)c(F)c1` (centres unmarked) [Compound 57, 4-(((6-(2-(2,4-Difluorophenyl)-1,1-difluoro-2-hydroxy-3-(1H-tetrazol-1-yl)propyl)pyridin-3-yl)oxy)methyl)-3-fluorobenzonitrile] was run?
A: 80 to 100%

Q: Which pest or weed control at 50 ppm does the source give for `OC(Cn1cnnn1)(c1ccc(F)cc1F)C(F)(F)c1ccc(Oc2ccc(Cl)cc2)cn1` (centres unmarked) [Compound 7, 1-(5-(4-Chlorophenoxy)pyridin-2-yl)-2-(2,4-difluorophenyl)-1,1-difluoro-3-(1H-tetrazol-1-yl)propan-2-ol] here?
A: 80 to 100%

Q: With `N#Cc1ccc(COc2ccc(C(F)(F)C(O)(Cn3cnnn3)c3ccc(F)cc3F)nc2)cc1` (centres unmarked) [Compound 9, 4-(((6-(2-(2,4-Difluorophenyl)-1,1-difluoro-2-hydroxy-3-(1H-tetrazol-1-yl)propyl)pyridin-3-yl)oxy)methyl)benzonitrile] as the compound, how does the pest or weed control at 50 ppm read?
A: 80 to 100%

Q: Which pest or weed control at 50 ppm does the source give for `OC(Cn1cnnn1)(c1ccc(F)cc1F)C(F)(F)c1ccc(OCc2cccc(F)c2F)cn1` (centres unmarked) [Compound 23, 1-(5-((2,3-Difluorobenzyl)oxy)pyridin-2-yl)-2-(2,4-difluorophenyl)-1,1-difluoro-3-(1H-tetrazol-1-yl)propan-2-ol] here?
A: 80 to 100%

Q: With `N#Cc1ccc(Oc2ccc(C(F)(F)C(O)(Cn3cnnn3)c3ccc(Cl)cc3F)nc2)cc1` (centres unmarked) [Compound 79, 4-((6-(2-(4-Chloro-2-fluorophenyl)-1,1-difluoro-2-hydroxy-3-(1H-tetrazol-1-yl)propyl)pyridin-3-yl)oxy)benzonitrile] as the compound, how does the pest or weed control at 50 ppm read?
A: 80 to 100%

Q: `OC(Cn1cnnn1)(c1ccc(Cl)cc1F)C(F)(F)c1ccc(OCC(F)(F)F)cn1` (centres unmarked) [Compound 71, 2-(4-Chloro-2-fluorophenyl)-1,1-difluoro-3-(1H-tetrazol-1-yl)-1-(5-(2,2,2-trifluoroethoxy)pyridin-2-yl)propan-2-ol] was tested. Which pest or weed control at 50 ppm did it give?
A: 80 to 100%

Q: `OC(Cn1cnnn1)(c1ccc(F)cc1F)C(F)(F)c1ccc(OCC(F)(F)c2ccc(OC(F)F)cc2)cn1` (centres unmarked) [Compound 120, 1-(5-(2-(4-(difluoromethoxy)phenyl)-2,2-difluoroethoxy)pyridin-2-yl)-2-(2,4-difluorophenyl)-1,1-difluoro-3-(1H-tetrazol-1-yl)propan-2-ol] was tested. Which pest or weed control at 50 ppm did it give?
A: 80 to 100%

Q: With `COc1ccc(COc2ccc(C(F)(F)C(O)(Cn3cnnn3)c3ccc(F)cc3F)nc2)cc1` (centres unmarked) [Compound 41, 2-(2,4-Difluorophenyl)-1,1-difluoro-1-(5-((4-methoxybenzyl)oxy)pyridin-2-yl)-3-(1H-tetrazol-1-yl)propan-2-ol] as the compound, how does the pest or weed control at 50 ppm read?
A: 80 to 100%

Q: With `N#Cc1ccc(COc2ccc(C(F)(F)C(O)(Cn3cnnn3)c3ccc(F)cc3F)nc2)cc1F` (centres unmarked) [Compound 10, 4-(((6-(2-(2,4-Difluorophenyl)-1,1-difluoro-2-hydroxy-3-(1H-tetrazol-1-yl)propyl)pyridin-3-yl)oxy)methyl)-2-fluorobenzonitrile] as the compound, how does the pest or weed control at 50 ppm read?
A: 80 to 100%

Q: With `N#Cc1ccc(COc2ccc(C(F)(F)C(O)(Cn3cnnn3)c3ccc(F)cc3F)nc2)s1` (centres unmarked) [Compound 73, 5-(((6-(2-(2,4-Difluorophenyl)-1,1-difluoro-2-hydroxy-3-(1H-tetrazol-1-yl)propyl)pyridin-3-yl)oxy)methyl)thiophene-2-carbonitrile] as the compound, how does the pest or weed control at 50 ppm read?
A: 80 to 100%

Q: With `OC(Cn1cnnn1)(c1ccc(F)cc1F)C(F)(F)c1ccc(Oc2ncc(C(F)(F)F)cc2F)cn1` (centres unmarked) [Compound 104, 2-(2,4-difluorophenyl)-1,1-difluoro-1-(5-((3-fluoro-5-(trifluoromethyl)pyridin-2-yl)oxy)pyridin-2-yl)-3-(1H-tetrazol-1-yl)propan-2-ol] as the compound, how does the pest or weed control at 50 ppm read?
A: 80 to 100%

Q: For `OC(Cn1cnnn1)(c1ccc(F)cc1F)C(F)(F)c1ccc(Oc2cccc(F)c2)cn1` (centres unmarked) [Compound 77, 2-(2,4-Difluorophenyl)-1,1-difluoro-1-(5-(3-fluorophenoxy)pyridin-2-yl)-3-(1H-tetrazol-1-yl)propan-2-ol], which pest or weed control at 50 ppm is on record?
A: 60 to 79%

Q: How did the pest or weed control at 50 ppm turn out when `N#Cc1ncc(Oc2ccc(C(F)(F)C(O)(Cn3cnnn3)c3ccc(F)cc3F)nc2)cn1` (centres unmarked) [Compound 100, 5-((6-(2-(2,4-difluorophenyl)-1,1-difluoro-2-hydroxy-3-(1H-tetrazol-1-yl)propyl)pyridin-3-yl)oxy)pyrimidine-2-carbonitrile] was run?
A: 60 to 79%

Q: For `N#Cc1ccc(COc2ccc(C(F)(F)C(O)(Cn3cnnn3)c3ccc(F)cc3F)nc2)nc1` (centres unmarked) [Compound 50, 6-(((6-(2-(2,4-Difluorophenyl)-1,1-difluoro-2-hydroxy-3-(1H-tetrazol-1-yl)propyl)pyridin-3-yl)oxy)methyl)nicotinonitrile], which pest or weed control at 50 ppm is on record?
A: 80 to 100%

Q: How did the pest or weed control at 50 ppm turn out when `N#Cc1cc(Oc2ccc(C(F)(F)C(O)(Cn3cnnn3)c3ccc(F)cc3F)nc2)ccn1` (centres unmarked) [Compound 96, 4-((6-(2-(2,4-difluorophenyl)-1,1-difluoro-2-hydroxy-3-(1H-tetrazol-1-yl)propyl)pyridin-3-yl)oxy)picolinonitrile] was run?
A: 60 to 79%

Q: For `OC(Cn1cnnn1)(c1ccc(F)cc1F)C(F)(F)c1ccc(Oc2ccc(C(F)(F)F)cn2)cn1` (centres unmarked) [Compound 94, 2-(2,4-difluorophenyl)-1,1-difluoro-3-(1H-tetrazol-1-yl)-1-(5-((5-(trifluoromethyl)pyridin-2-yl)oxy)pyridin-2-yl)propan-2-ol], which pest or weed control at 50 ppm is on record?
A: 80 to 100%

Q: `N#Cc1cccc(COc2ccc(C(F)(F)C(O)(Cn3cnnn3)c3ccc(F)cc3F)nc2)c1` (centres unmarked) [Compound 52, 3-(((6-(2-(2,4-Difluorophenyl)-1,1-difluoro-2-hydroxy-3-(1H-tetrazol-1-yl)propyl)pyridin-3-yl)oxy)methyl)benzonitrile] was tested. Which pest or weed control at 50 ppm did it give?
A: 80 to 100%

Q: With `OC(Cn1cnnn1)(c1ccc(F)cc1F)C(F)(F)c1ccc(OCc2ccc(Cl)nc2)cn1` (centres unmarked) [Compound 116, 1-(5-((6-chloropyridin-3-yl)methoxy)pyridin-2-yl)-2-(2,4-difluorophenyl)-1,1-difluoro-3-(1H-tetrazol-1-yl)propan-2-ol] as the compound, how does the pest or weed control at 50 ppm read?
A: 80 to 100%

Q: Which pest or weed control at 50 ppm does the source give for `O=Cc1ccc(Oc2ccc(C(F)(F)C(O)(Cn3cnnn3)c3ccc(F)cc3F)nc2)nc1` (centres unmarked) [Compound 101, 6-((6-(2-(2,4-difluorophenyl)-1,1-difluoro-2-hydroxy-3-(1H-tetrazol-1-yl)propyl)pyridin-3-yl)oxy)nicotinaldehyde] here?
A: < 40%

Q: Which pest or weed control at 50 ppm does the source give for `N#Cc1ccc(F)c(COc2ccc(C(F)(F)C(O)(Cn3cnnn3)c3ccc(F)cc3F)nc2)c1` (centres unmarked) [Compound 59, 3-(((6-(2-(2,4-Difluorophenyl)-1,1-difluoro-2-hydroxy-3-(1H-tetrazol-1-yl)propyl)pyridin-3-yl)oxy)methyl)-4-fluorobenzonitrile] here?
A: 80 to 100%

Q: How did the pest or weed control at 50 ppm turn out when `COc1cccc(COc2ccc(C(F)(F)C(O)(Cn3cnnn3)c3ccc(F)cc3F)nc2)c1` (centres unmarked) [Compound 34, 2-(2,4-Difluorophenyl)-1,1-difluoro-1-(5-((3-methoxybenzyl)oxy)pyridin-2-yl)-3-(1H-tetrazol-1-yl)propan-2-ol] was run?
A: 80 to 100%

Q: How did the pest or weed control at 50 ppm turn out when `CC(C)COc1ccc(C(F)(F)C(O)(Cn2cnnn2)c2ccc(Cl)cc2F)nc1` (centres unmarked) [Compound 69, 2-(4-Chloro-2-fluorophenyl)-1,1-difluoro-1-(5-isobutoxypyridin-2-yl)-3-(1H-tetrazol-1-yl)propan-2-ol] was run?
A: 80 to 100%

Q: For `OC(Cn1cnnn1)(c1ccc(F)cc1F)C(F)(F)c1ccc(OCc2ccc(F)cc2F)cn1` (centres unmarked) [Compound 2, 1-(5-(2,4-Difluorobenzyloxy)pyridin-2-yl)-2-(2,4-difluorophenyl)-1,1-difluoro-3-(1H-tetrazol-1-yl)propan-2-ol], which pest or weed control at 50 ppm is on record?
A: 80 to 100%

Q: Which pest or weed control at 50 ppm does the source give for `N#Cc1ccc(C(F)(F)COc2ccc(C(F)(F)C(O)(Cn3cnnn3)c3ccc(F)cc3F)nc2)cc1` (centres unmarked) [Compound 121, 4-(2-((6-(2-(2,4-difluorophenyl)-1,1-difluoro-2-hydroxy-3-(1H-tetrazol-1-yl)propyl)pyridin-3-yl)oxy)-1,1-difluoroethyl)benzonitrile] here?
A: 80 to 100%

Q: How did the pest or weed control at 50 ppm turn out when `CO/N=C/c1ccc(Oc2ccc(C(F)(F)C(O)(Cn3cnnn3)c3ccc(F)cc3F)nc2)nc1` (centres unmarked) [Compound 102, (E)-6-((6-(2-(2,4-difluorophenyl)-1,1-difluoro-2-hydroxy-3-(1H-tetrazol-1-yl)propyl)pyridin-3-yl)oxy)nicotinaldehyde O-methyl oxime] was run?
A: 80 to 100%

Q: For `OC(Cn1cnnn1)(c1ccc(F)cc1F)C(F)(F)c1ccc(OCC2CC2)cn1` (centres unmarked) [Compound 39, 1-(5-(Cyclopropylmethoxy)pyridin-2-yl)-2-(2,4-difluorophenyl)-1,1-difluoro-3-(1H-tetrazol-1-yl)propan-2-ol], which pest or weed control at 50 ppm is on record?
A: 80 to 100%

Q: For `N#Cc1ccc(CSc2ccc(C(F)(F)C(O)(Cn3cnnn3)c3ccc(F)cc3F)nc2)c(F)c1` (centres unmarked) [Compound 15, 4-(((6-(2-(2,4-Difluorophenyl)-1,1-difluoro-2-hydroxy-3-(1H-tetrazol-1-yl)propyl)pyridin-3-yl)thio)methyl)-3-fluorobenzonitrile], which pest or weed control at 50 ppm is on record?
A: 40 to 59%

Q: For `OC(Cn1cnnn1)(c1ccc(F)cc1F)C(F)(F)c1ccc(OCC(F)c2ccc(OC(F)F)cc2)cn1` (centres unmarked) [Compound 124, 1-(5-(2-(4-(difluoromethoxy)phenyl)-2-fluoroethoxy)pyridin-2-yl)-2-(2,4-difluorophenyl)-1,1-difluoro-3-(1H-tetrazol-1-yl)propan-2-ol], which pest or weed control at 50 ppm is on record?
A: 80 to 100%
